Reference: patent publication US6784153B1, “Methods of homing molecules to lung using membrane dipeptidase” (The Burnham Institute, priority 1998, dated 2004)

Key:
skin = experiment: in vivo homing of phage displaying peptides to skin; set-up: species or system mice
Procedure: For in vivo panning of skin, two month old BALB/c nude mice were used to avoid contamination by hair. The mice were injected intravenously with phage as described above and, after perfusion through the heart, the skin was removed in large sections and placed on an ice cold plate with the hypodermis facing up. The skin was scraped with a scalpel to remove mostly hypodermis, which was then processed for phage recovery as described below.
(§1) Approximately 250 to 300 individual bacterial colonies containing phage recovered from the various organs or tissues were grown for 16 hr in 5 ml NZY/tet. In some experiments, approximately 1000 individual bacteria containing phage were picked and the phage were amplified in 2 ml of NZY/tet or the entire plate containing phage was scraped, pooled and grown in bulk and processed for injection. Where phage were cultured separately, the cultures were pooled and the phage were injected into mice or rats as described above for a second round of in vivo panning. In some experiments, a third or fourth round of panning was performed. Phage DNA was purified from individual bacterial colonies obtained and the DNA sequences encoding the peptides expressed by selected phage were determined (see Koivunen et al., supra, 1994b).
in After two or three rounds of in vivo panning of mice injected with a cyclic CX3CX3CX3C (SEQ ID NO: 25) phage display library, the peptide sequence CVALCREACGEGC (SEQ ID NO: 3), which appeared repeatedly in skin, was identified (Table 1). To determine the specificity of skin homing of the sequence CVALCREACGEGC (SEQ ID NO: 3), phage displaying the peptide was amplified individually, diluted to the same input titer and administered to mice. Following administration, control kidney and brain organ were removed and the number of TU of phage in skin, kidney and brain was determined.
Peptides that were identified more than one time during screening are indicated by an asterisk. For example, 14% of recovered CX3CX3CX3C (SEQ ID NO: 25) phage that homed to head skin had the sequence CVDVCCDGCPVCC (SEQ ID NO: 437). Phage having the sequence RVPLSGDVEH (SEQ ID NO: 438), LRVMSFTSGQ (SEQ ID NO: 439), or RFSVGSLFGS (SEQ ID NO: 440) each constituted 14% of recovered CX10C (SEQ ID NO: 30) phage that homed to head skin.

lung = experiment: in vivo homing of phage displaying peptides to lung; set-up: species or system mice; conditions: for % OF MOTIF AMONG ALL CLONES: LUNG; for LUNG/BRAIN RATIO: LUNG section; for enriched in lung over unselected phage: individually amplified phage, FIG. 2; for enrichment in lung as compared to unselected phage: mouse, in vivo
Procedure: For lung and pancreas, a mixture of phage libraries containing 10^10 TU was diluted in 200 μl DMEM and injected into the tail vein of anesthetized BALB/c mice (2 month old; Harlan Sprague Dawley; San Diego Calif.); AVERTIN (0.017 ml/g) was used as anesthetic (Pasqualini and Ruoslahti, supra, 1996). After 1-4 minutes, mice were snap frozen in liquid nitrogen or, after about 5 minutes of phage circulation, the mice were perfused through the heart with 5-10 ml of DMEM (SIGMA; St. Louis Mo.). To recover the phage, the organs from the perfused mice or partially thawed organs from snap frozen mice were collected and weighed, then were homogenized in 1 ml DMEM-PI (DMEM containing protease inhibitors (PI); phenylmethyl sulfonyl fluoride (PMSF; 1 mM), aprotinin (20 μg/ml), leupeptin (1 μg/ml)).
(§2) Organ samples were washed 3 times with ice cold DMEM-PI containing 1% bovine serum albumin (BSA), then directly incubated with 1 ml K91-kan bacteria for 1 hr. Ten ml NZY medium containing 0.2 μg/ml tetracycline (NZY/tet) was added to the bacterial culture, the mixture was incubated in a 37° C. shaker for 1 hr, then 200 μl aliquots were plated in agar plates containing 40 μg/ml tetracycline (tet/agar).
as §1
After two or three rounds of in vivo panning of mice injected with a cyclic CX3CX3CX3C (SEQ ID NO: 25) or a cyclic CX6C (SEQ ID NO: 26) phage display library, four peptides that homed to lung were identified.
To determine the specificity of lung homing of the individual peptides identified, phage displaying the peptides were amplified individually, diluted to the same input titer and administered to mice. Following administration, control kidney and brain organ was removed and the number of TU of phage in lung, kidney and brain was determined. The results shown in FIG. 2 reveal that 10× and 35× more phage having the peptide sequence CGFECVRQCPERC (SEQ ID NO: 1; GFE-1) bound to lung than to kidney and brain, respectively. […] The lung homing peptides CGFECVRQCPERC (SEQ ID NO: 1; GFE-1), CGFELETC (SEQ ID NO: 2; GFE-2), CTLRDRNC (SEQ ID NO: 15) and CIGEVEVC (SEQ ID NO: 16) are enriched in lung at 35×, 9×, 6× and 5×, respectively, over unselected phage (see FIG. 2).

prostate = experiment: in vivo panning of X7 library, prostate; set-up: species or system mice; conditions: for % OF MOTIF AMONG ALL CLONES: PROSTATE; for prostate/brain homing ratio: PROSTATE section, prostate as compared to brain; for enrichment in homing to prostate as compared to brain: mouse, in vivo
Procedure: (§3) Following various in vivo panning screens, hundreds of thousands to millions of phage expressing homing peptides were recovered from the respective organ or tissue. Generally, the phage collected from a round of in vivo panning were plated on agar, about 250 to 300 clones were selected, grown in 5 ml cultures, then pooled and readministered for a subsequent round of in vivo panning (“regular method”). However, in some experiments, 1000 clones were selected, grown in 2 ml cultures, then pooled and administered for a subsequent round of screening; or the entire agar plate was scraped and all of the phage were cultured together and administered for a subsequent round of screening. The peptide inserts of various isolated phage were determined such that, of the millions of phage that homed, only a small number of sequences were identified.
The invention also provides prostate homing peptides such as SMSIARL (SEQ ID NO: 21) and VSFLEYR (SEQ ID NO: 22), which were identified by injection of an X7 (SEQ ID NO: 29) library into mice (Table 7). The peptides were isolated by the regular method.
as §2, §1

ovary = experiment: in vivo panning of X7 library, ovary; set-up: species or system mice; conditions: for ovary/brain enrichment ratio: OVARY section, ovary as compared to brain; for % OF MOTIF AMONG ALL CLONES: OVARY, of 40 clones sequenced; for enrichment in ovary as compared to brain: mouse, in vivo
Procedure: as §3
Also provided are ovary homing peptides such as RVGLVAR (SEQ ID NO: 11) and EVRSRLS (SEQ ID NO: 10), which were identified by injection of an X7 (SEQ ID NO: 29) library into mice (Table 8). The peptides were isolated by the regular method.
as §2, §1

gut = experiment: in vivo panning of X7 library, gut; set-up: species or system mice; conditions: for gut/brain enrichment ratio: GUT section, gut as compared to brain; for % OF MOTIF AMONG ALL CLONES: GUT, of 40 clones sequenced
Procedure: as §3
The invention also provides gut homing peptides such as YSGKWGK (SEQ ID NO: 9) and YSGKWGW (SEQ ID NO: 156), which were identified by injection of an X7 (SEQ ID NO: 29) library into mice (Tables 1 and 4) and differ only in the last amino acid position. The peptides were isolated by the regular method. The gut homing peptide YSGKWGK (SEQ ID NO: 9) was present in 22% of 40 clones sequenced and was enriched 30-fold in gut as compared to brain (Table 1). In addition, gut homing peptides such as QVRRVPE (SEQ ID NO: 155) and VRRGSPQ (SEQ ID NO: 164), which share a VRR motif, were identified, as were the peptides VRRGSPQ (SEQ ID NO: 164), GGRGSWE (SEQ ID NO: 167) and FRVRGSP (SEQ ID NO: 169), which share an RGS motif.
as §2, §1

retina = experiment: in vivo homing of phage displaying peptides to retina, coinjected with control phage fdAMPLAY88; set-up: species or system rats; conditions: for enrichment in retina: injected individually with control fdAMPLAY88 phage; for enrichment in retina compared to control fdAMPLAY88 phage: rat, in vivo
Procedure: For in vivo panning of retina, two month old female Simonson Albino rats were used to provide larger tissue samples than mice. The rats were anesthetized with phenobarbital (50 mg/kg body weight), and, while under deep anesthesia, the abdominal cavity of the rats was opened and 10^10 TU of a phage library was injected into the left ventricle of the heart through the diaphragm. After 2-5 minutes of phage circulation, the eyes were removed, then washed once in 70% EtOH and once in PBS. The anterior chamber, with cornea and lens, was removed and the retina was peeled from the remaining posterior chamber. The tissue was weighed, homogenized with a syringe bulb in 1 ml of ice cold DMEM containing protease inhibitors (1 mM PMSF, 20 μg/ml aprotinin and 1 μg/ml of leupeptin; all from SIGMA; St. Louis Mo.). The tissue was washed 3 times with 1 ml of DMEM and the phage were rescued as described below.
as §1
Rats injected with a cyclic CX7C (SEQ ID NO: 24) phage display library were subjected to in vivo panning and, after three rounds, the peptide sequences CSCFRDVCC (SEQ ID NO: 5) and CRDVVSVIC (SEQ ID NO: 6) were identified in retina. Because of small tissue sample size, the phage isolated could not be accurately quantitated. Thus, the selectivity of phage displaying the peptides was determined by individually amplifying the phage displaying the sequence and administering the phage to rats with a control phage fdAMPLAY88. This fd-ampicillin phage is similar to fd-tetracycline (fuse 5-based) in that it has the same infectivity.
Rats were injected with an equal amount of the CSCFRDVCC (SEQ ID NO: 5) or CRDVVSVIC (SEQ ID NO: 6) and the fdAMPLAY88 phage. Following administration, homing to retina was evaluated by comparing the number of TU of the selected phage on tetracycline plates and fdAMPLAY88 on ampicillin plates recovered from retina.

CSSGCSKNCLEMC [peptide from phage recovered from skin]
skin/brain phage ratio (skin; SKIN section): 2

CRPWHNQAHTEC [peptide from phage recovered from lung]
% OF MOTIF AMONG ALL CLONES (lung): 14%
LUNG/BRAIN RATIO (lung): 5

RGRWLAL [peptide from phage recovered from prostate]
% OF MOTIF AMONG ALL CLONES (prostate): 6%

CIGEVEVC [peptide from phage recovered from lung]
% OF MOTIF AMONG ALL CLONES (lung): 5%
LUNG/BRAIN RATIO (lung): 6
enriched in lung over unselected phage (lung): 5 ×
enrichment in lung as compared to unselected phage (lung): 6 fold

SMSIARL [peptide from phage recovered from prostate]
% OF MOTIF AMONG ALL CLONES (prostate): 6%
prostate/brain homing ratio (prostate): 34
enrichment in homing to prostate as compared to brain (prostate): 34 fold

EVRSRLS [peptide from phage recovered from ovary]
ovary/brain enrichment ratio (ovary): 3
% OF MOTIF AMONG ALL CLONES (ovary): 22%
enrichment in ovary as compared to brain (ovary): 3 fold

YSGKWGK [gut homing peptide]
gut/brain enrichment ratio (gut): 30
% OF MOTIF AMONG ALL CLONES (gut): 22%
enriched in gut as compared to brain (gut; mouse, in vivo): 30 fold

CERVVGSSC [peptide from phage recovered from lung]
% OF MOTIF AMONG ALL CLONES (lung): 9%
LUNG/BRAIN RATIO (lung): 4

VSFLEYR [peptide from phage recovered from prostate]
% OF MOTIF AMONG ALL CLONES (prostate): 6%
prostate/brain homing ratio (prostate): 17
enrichment in homing to prostate as compared to brain (prostate): 17 fold

CRLRSYGTLSLC [peptide from phage recovered from lung]
% OF MOTIF AMONG ALL CLONES (lung): 5%
LUNG/BRAIN RATIO (lung): 0.4

RFSVGSLFGS [peptide from phage recovered from skin]
% of recovered CX10C phage that homed to head skin (skin; head skin): 14%

CSCFRDVCC [retina homing peptide]
enrichment in retina (retina): 3 fold
enrichment in retina compared to control fdAMPLAY88 phage (retina): 3 ×

CWRGDRKIC [peptide from phage recovered from lung]
% OF MOTIF AMONG ALL CLONES (lung): 8%
LUNG/BRAIN RATIO (lung): 2

CLRPYLNC [peptide from phage recovered from lung]
% OF MOTIF AMONG ALL CLONES (lung): 10%
LUNG/BRAIN RATIO (lung): 6

CTLRDRNC [lung homing peptide]
% OF MOTIF AMONG ALL CLONES (lung): 10%
LUNG/BRAIN RATIO (lung): 8
enriched in lung over unselected phage (lung): 6 ×
enrichment in lung as compared to unselected phage (lung): 8 fold

GISALVLS
% OF MOTIF AMONG ALL CLONES (gut): 11%

CRDVVSVIC [retina homing peptide]
enrichment in retina (retina): 2 fold
enrichment in retina compared to control fdAMPLAY88 phage (retina): 2 ×

SRRQPLS [peptide from phage recovered from gut]
gut/brain enrichment ratio (gut): 2
% OF MOTIF AMONG ALL CLONES (gut): 11%

CKWSRLHSC [peptide from phage recovered from lung]
% OF MOTIF AMONG ALL CLONES (lung): 11%
LUNG/BRAIN RATIO (lung): 3

RVPLSGDVEH [peptide from phage recovered from skin]
% of recovered CX10C phage that homed to head skin (skin; head skin): 14%

CTVNEAYKTRMC [peptide from phage recovered from lung]
% OF MOTIF AMONG ALL CLONES (lung): 22%
LUNG/BRAIN RATIO (lung): 3

CVDVCCDGCPVCC [peptide from phage recovered from skin]
% of recovered CX3CX3CX3C phage that homed to head skin (skin; head skin): 14%

CGKRYRNC
% OF MOTIF AMONG ALL CLONES (lung): 5%
LUNG/BRAIN RATIO (lung): 5

MSPQLAT [peptide from phage recovered from gut]
% OF MOTIF AMONG ALL CLONES (gut): 11%

RVGLVAR [peptide from phage recovered from ovary]
ovary/brain enrichment ratio (ovary): 5
% OF MOTIF AMONG ALL CLONES (ovary): 22%
enrichment in ovary as compared to brain (ovary): 5 fold

LRVMSFTSGQ [peptide from phage recovered from skin]
% of recovered CX10C phage that homed to head skin (skin; head skin): 14%

CLAKENVVC [peptide from phage recovered from lung]
% OF MOTIF AMONG ALL CLONES (lung): 13%
LUNG/BRAIN RATIO (lung): 2

CGATCEMQCPSGC [peptide from phage recovered from skin]
% of recovered CX3CX3CX3C phage, homing to tail skin (skin; tail skin): 12%
